“Also recorded” adds a separate entry of the source. Like-named read-outs stand apart in the source and are kept apart here. Positions of bridges follow the written chain, without caps; N, C: chain ends. Residues, ends and D or L forms follow the SMILES beside them.
Experiments:
[1] = solubility in water and octanol; type: physicochemical
[2] = oil (octanol)/water partition coefficient; type: physicochemical; conditions: pH 7, preliminary experiments
stability in pH 7 water = type: physicochemical; conditions: n=3, Figure S2
[3] = tested on: primary ovarian cancer cells; assay: Western blot of Bcl-xl, Bax, Akt, Caspase-3, CDC25C and CyclinB1 proteins; type: cell-based, human; conditions: 48 h
Description: Proteins were isolated from primary ovarian cancer cells harvested after ACFP treatment, separated by SDS-PAGE and transferred to PVDF membrane using the standard protocol. After blocking with 5 % (w/v) dry skim milk, membranes were incubated with primary antibodies (mouse monoclonal Bcl-xl, Bax, Akt, Caspase-3, CDC25C, CyclinB1 and β-Actin antibodies, 1:1000 dilution) according to the manufacturer’s instructions and later incubated with a horseradish peroxidase conjugated secondary antibody (goat anti-mouse IgG, 1:8000 dilution). The proteins were detected with the enhanced chemiluminescence (ECL) system followed by exposure to X-ray film. The β-Actin was used as a loading control. Two independent experiments were performed. Digital images were captured by Gel DocTM gel documentation system (Bio-Rad, USA) and intensities were quantified using Quantity-One software version 4.62 (Bio-Rad, USA).

[4] = tested on: primary ovarian cancer cells; conditions: High dose 5×10^-3 g/L, 48 h
Description: We utilized cDNA microarrays to observe the effect of ACFP on gene expression in primary ovarian cancer cells. Cells were treated with 0 (the vehicle group, as control), 5 × 10^6 g/L and 5 × 10^3 g/L ACFP, respectively, and cultured for 48 h at 37 °C in 5 % CO2. Cells were later digested and collected for total RNA extraction using Trizol. The RNA concentrations and purities were detected with a spectrophotometer. The experiments were performed in duplicate on a single total RNA preparation from the cells. Signal values were presented as the mean value of two replicate experiments. RNA samples were used to generate human whole genome expression profiling microarray (Yeli Bioscience Co., Ltd.; Shanghai, China). RNA was subsequently converted into digoxigenin-labeled complementary RNA and hybridized to a human genome microarray system (Human OneArray Microarray, from Phalanx Biotech Group, Taiwan). The chips were scanned by a GeeDom® LuxScan 10 K microarray scanner. LuxScan3.0 software was used to extract probe fluorescence signals and analyze images. Finally, the original data were processed by normalizing.

CC[C@H](C)[C@@H]1NC(=O)[C@H](CO)NC(=O)[C@@H]2CCCN2C(=O)[C@H](C)NC(=O)CNC(=O)[C@H](CC(C)C)NC(=O)[C@H](CCCCN)NC(=O)[C@H](CCCCN)NC(=O)[C@H](CCSC)NC(=O)[C@H](CCCNC(=N)N)NC(=O)[C@H](Cc2c[nH]c3ccccc23)NC(=O)[C@H](CCC(N)=O)NC(=O)[C@H](Cc2c[nH]c3ccccc23)NC(=O)[C@H](CCCNC(=N)N)NC(=O)[C@H](CCCNC(=N)N)NC(=O)[C@@H](NC(=O)[C@H](CCCCN)NC(=O)[C@@H](N)Cc2ccccc2)CSSC[C@@H](C(=O)N[C@H](C(=O)N[C@@H](CCCNC(=N)N)C(=O)N[C@@H](CCCNC(=N)N)C(=O)N[C@@H](C)C(=O)N[C@@H](Cc2ccccc2)C(=O)NCC(=O)NCC(=O)NCC(=O)NCC(=O)N[C@@H](CO)C(=O)N2CCC[C@H]2C(=O)NCC(=O)N2CCC[C@H]2C(=O)N[C@H](C(=O)N2CCC[C@H]2C(=O)N[C@@H](CC(N)=O)C(=O)O)[C@@H](C)CC)C(C)C)NC(=O)[C@H]([C@@H](C)O)NC1=O [ACFP] (H-FKCRRWQWRMKKLGAPSITCVRRAFGGGGSPGPIPN-OH; disulfide 3-20; N-terminus and C-terminus assumed)
solubility in fat (octanol) [1]: slightly soluble | solubility in water [1]: easily dissolve | logD [2]: -0.91 | stability (stability in pH 7 water): very stable; also recorded: good stability | protein levels of Bax and Caspase-3 ([3]; different concentrations, compared to control-treated group): elevated | protein levels of Bcl-xl, Akt, CDC25C and CyclinB1 ([3]; increasing drug concentration): gradually decreased | GTF2IP1 Ratio (ACFP/control) ([4]; NM-002970): 0.24 | IGFBP5 Ratio (ACFP/control) ([4]; NM-003488): 0.23 | MYLK Ratio (ACFP/control) ([4]; NM-004638): 0.23 | NKX3-1 Ratio (ACFP/control) ([4]; NM-004824): 3.11 | PLA2G5 Ratio (ACFP/control) ([4]; NM-005322): 0.46 | POLH Ratio (ACFP/control) ([4]; NM-005429): 0.12 | PSMA1 Ratio (ACFP/control) ([4]; NM-005682): 0.49 | STAT5B Ratio (ACFP/control) ([4]; NM-006777): 2.03 | STAT6 Ratio (ACFP/control) ([4]; NM-006778): 10.8 | UPP1 Ratio (ACFP/control) ([4]; NM-007378): 0.42 | TNFSF18 Ratio (ACFP/control) ([4]; NM-008995): 0.41 | MAP4K4 Ratio (ACFP/control) ([4]; NM-009448): 0.41 | BTF/BCLAF1 Ratio (ACFP/control) ([4]; NM-009774): 2.79 | TMEFF1 Ratio (ACFP/control) ([4]; NM-016522): 7.91 | RAB18 Ratio (ACFP/control) ([4]; NM-022931): 0.25 | TCF/LEF1 Ratio (ACFP/control) ([4]; NM-051176): 0.35 | PINX1 Ratio (ACFP/control) ([4]; NM-054984): 0.47 | RINT-1 Ratio (ACFP/control) ([4]; NM-060561): 0.17 | C17orf37 Ratio (ACFP/control) ([4]; NM-084299): 0.38 | ZNF512 Ratio (ACFP/control) ([4]; NM-084450): 0.47 | AKT1 Ratio (ACFP/control) ([4]; NM_000207): 0.27 | ARHE Ratio (ACFP/control) ([4]; NM_000390): 3.39 | BAG1 Ratio (ACFP/control) ([4]; NM_000573): 0.33 | BAX Ratio (ACFP/control) ([4]; NM_000581): 6.35 | BCL-xl Ratio (ACFP/control) ([4]; NM_000598): 0.19 | C1QG Ratio (ACFP/control) ([4]; NM_000714): 2.68 | CASP3 Ratio (ACFP/control) ([4]; NM_000836): 5.34 | CCNB1 Ratio (ACFP/control) ([4]; NM_000891, cyclinB1): 0.21 | TNFRSF8 Ratio (ACFP/control) ([4]; NM_000943, first entry): 3.22 | TNFRSF8 Ratio (ACFP/control) ([4]; NM_000943, second entry): 3.22 | CDC25C Ratio (ACFP/control) ([4]; NM_000995): 0.32 | CDKN1A Ratio (ACFP/control) ([4]; NM_001026): 6.58 | CDKN1A/p21 Ratio (ACFP/control) ([4]; NM_001026, second entry): 3.58 | CKS2 Ratio (ACFP/control) ([4]; NM_001164): 8.95 | DVL1 Ratio (ACFP/control) ([4]; NM_001855): 2.46 | GRK4 Ratio (ACFP/control) ([4]; NM_002868): 0.37 | GRK5 Ratio (ACFP/control) ([4]; NM_002869): 0.47 | GRK6 Ratio (ACFP/control) ([4]; NM_002870): 0.26 | GSTM4 Ratio (ACFP/control) ([4]; NM_002948): 2.72 | GSTM5 Ratio (ACFP/control) ([4]; NM_002949): 4.84 | IRF7 Ratio (ACFP/control) ([4]; NM_003665): 4.50 | ITGA5 Ratio (ACFP/control) ([4]; NM_003678): 0.43 | PKIA Ratio (ACFP/control) ([4]; NM_005569): 2.74 | MAPK3/ERK1 Ratio (ACFP/control) ([4]; NM_005595): 0.35 | MAPK8/JNK1 Ratio (ACFP/control) ([4]; NM_005599): 2.74 | MAPK13/p38 delta Ratio (ACFP/control) ([4]; NM_005603): 3.04 | PSMB8 Ratio (ACFP/control) ([4]; NM_005696): 3.24 | TNFRSF1A Ratio (ACFP/control) ([4]; NM_007132, first entry): 2.15 | TNFRSF1A Ratio (ACFP/control) ([4]; NM_007132, second entry): 2.08 | ZNF12 Ratio (ACFP/control) ([4]; NM_007559): 3.66 | BAT5 Ratio (ACFP/control) ([4]; NM_007920): 7.48 | PABPN1 Ratio (ACFP/control) ([4]; NM_008106): 9.8 | TNFRSF10B Ratio (ACFP/control) ([4]; NM_008795): 4.85 | STK17B Ratio (ACFP/control) ([4]; NM_009262): 2.97 | TRAF4 Ratio (ACFP/control) ([4]; NM_009618): 3.62 | USP34 Ratio (ACFP/control) ([4]; NM_009736): 4.52 | GOLGA5 Ratio (ACFP/control) ([4]; NM_009950): 2.95 | SUI1 Ratio (ACFP/control) ([4]; NM_010209): 9.85 | SPINT2 Ratio (ACFP/control) ([4]; NM_010653): 10.25 | PIK3R5 Ratio (ACFP/control) ([4]; NM_023533): 0.44 | CARD10 Ratio (ACFP/control) ([4]; NM_029775): 4.32 | FLJ39616 Ratio (ACFP/control) ([4]; NM_051275): 2.53 | GNG12 Ratio (ACFP/control) ([4]; NM_055970): 8.30 | BCORL1 Ratio (ACFP/control) ([4]; NM_063035): 0.25 | CARD14 Ratio (ACFP/control) ([4]; NM_079092): 3.06 | BCL2L14 Ratio (ACFP/control) ([4]; NM_079370): 2.57 | FLJ13848 Ratio (ACFP/control) ([4]; NM_079829): 9.45 | SNARK Ratio (ACFP/control) ([4]; NM_081788): 3.11
